2 compounds from patent US10336724B2, “D-amino acid oxidase inhibitors and therapeutic uses thereof” (SyneuRx International (Taiwan) Corp., priority 2017, dated 2019) can be followed below.

As usually defined, the pIC50 is the IC50 on a negative log10 scale, so that one unit is a factor of ten. Read a high pIC50 as a small IC50.

Test [1] concerns MK801-treated mice. The test can be described thus: Pre-pulse inhibition (PPI) test, MK801-induced deficit of sensorimotor gating. The class given is in vivo. The conditions noted are these: Example 1 446 or 892 mg/kg orally 20 min prior to MK801 0.2 mg/kg i.p.; each pre-pulse intensity. The procedure:
The mice were group housed (3-5 mice per cage) with food and water available ad libitum in polysulfone ventilated cages (Alternative Design, AR, USA) in the animal rooms of the SyneuRx International (Taiwan) Corp. The colony was maintained on a 12/12-hr light/dark cycle at the temperature of 22±2° C. and all behavioral studies were performed during dark cycle. All animals used in this study were adult mice (at least 2.5 months of age). All animal procedures were performed according to the protocols approved by the Institutional Animal Care and Use Committee (IACUC). The mice were randomly assigned into four groups, Group 1: vehicle control, Group 2: MK801, Group 3: Example 1 at 446 mg/kg+MK801, Group 4: Example 1 at 892 mg/kg+MK801. […]
(§1) All mice in the experiments were tested by open field task and pre-pulse inhibition with at least 1-week interval between two tasks. […] The percentage of pre-pulse inhibition was calculated by the following formula: % PPI=100×[(PA score)−(pp-P score)]/(PA score), where the PA score was the average of the PA value in the middle blocks. […]

Test [2] has as its system MK801-treated mice. The test can be described thus: Open field task, MK801-induced hyper-locomotion. The conditions noted are these: Example 1 446 or 892 mg/kg orally 20 min prior to MK801 0.1 mg/kg i.p.; 120 minutes testing period. Type of test: in vivo. The procedure: (§2) The mice were placed in a Plexiglas cage (37.5 cm×21.5 cm×18 cm) under 50-65 lux light intensity, the spontaneous locomotion was measured for 120 minutes using the EthoVision video tracking system (Noldus Information Technology, the Netherlands). The travel distance of each mouse was measured as an index of spontaneous locomotion.
The mice were group housed (3-5 mice per cage) with food and water available ad libitum in polysulfone ventilated cages (Alternative Design, AR, USA) in the animal rooms of the SyneuRx International (Taiwan) Corp. The colony was maintained on a 12/12-hr light/dark cycle at the temperature of 22±2° C. and all behavioral studies were performed during dark cycle. All animals used in this study were adult mice (at least 2.5 months of age). All animal procedures were performed according to the protocols approved by the Institutional Animal Care and Use Committee (IACUC). […]
as §1

The subject of a further test is mice. As to the kind of experiment: Spontaneous locomotion in open field. Type of test: in vivo. The conditions noted are these: oral, 446 and 892 mg/kg, 120 minutes observation. The procedure:
The mice were group housed (3-5 mice per cage) with food and water available ad libitum in polysulfone ventilated cages (Alternative Design, AR, USA) in the animal rooms of SyneuRx International (Taiwan) Corp. The colony was maintained on a 12/12-hr light/dark cycle at the temperature of 22±2° C. and all behavioral studies were performed during the dark cycle. All animals used in this study were adult mice (at least 2.5 months of age). All animal procedures were performed according to the protocols approved by Institutional Animal Care and Use Committee (IACUC).
The compound of Example 1 was placed into 100% PEG400, and was sonic vibrated until solution became clear. […]
Mice that received oral administration of either vehicle or low/high dose of the compound of Example 1 was immediately subjected to open field test and the index of spontaneous locomotion was expressed as total travel distance measured within the defined time frame.
as §2

A further test has as its target hDAAO (human DAAO) (Homo sapiens (Human), UniProt P14920). As to the kind of experiment: hDAAO (human DAAO) activity, D-serine substrate, Amplex Red fluorescence. Type of test: biochemical. The procedure:
The hDAAO (human DAAO) activity was measured by using D-serine as a substrate to produce H2O2. The produced H2O2 would be oxidized by peroxidase, and the produced free radicals would further react with Amplex Red reagent to emit fluorescence. The intensity of fluorescence at 590 nm would be measured to represent the activity of hDAAO. All compounds were dissolved in DMSO. Each compound was diluted with DMSO in 3-fold serial dilution to create a 9-point dose response curve. Each sample was added in triplicate, 1 μL/well, into 96-well black plates. Positive control wells were added with 1 μL of DMSO. Then 49 μL of assay buffer (100 mM Tris-HCl, pH 8.5) containing 1.2 ng/mL hDAAO, 900 nM FAD, 0.2 units/mL HRP, and 100 μM Amplex Red was added to each well of the plate using a multichannel pipette. Next, 50 μL of 100 mM D-Serine in assay buffer was added. The reaction plates were then incubated in the dark at room temperature. The fluorescence readout was detected at 0 and 20 minute by Molecular Device Gemini EM fluorescence reader using the following settings: excitation filter 530 nm, and emission filter 590 nm. The percentage of inhibition values for each well was calculated with the following equation: The percentage of inhibition=(fluorescencesample, 20 min−fluorescencesample, 0 min)/(fluorescenceDMSO, 20 min−fluorescenceDMSO, 0 min)×100%
The nonlinear curve fitting model in GraphPad Prism 5 was used to calculate IC50 value for each compound.

Structures are written as SMILES. pIC50: −log10 of the molar value. “Also recorded” adds a separate entry of the source.

Chain of hDAAO (human DAAO) (P14920 whole entry): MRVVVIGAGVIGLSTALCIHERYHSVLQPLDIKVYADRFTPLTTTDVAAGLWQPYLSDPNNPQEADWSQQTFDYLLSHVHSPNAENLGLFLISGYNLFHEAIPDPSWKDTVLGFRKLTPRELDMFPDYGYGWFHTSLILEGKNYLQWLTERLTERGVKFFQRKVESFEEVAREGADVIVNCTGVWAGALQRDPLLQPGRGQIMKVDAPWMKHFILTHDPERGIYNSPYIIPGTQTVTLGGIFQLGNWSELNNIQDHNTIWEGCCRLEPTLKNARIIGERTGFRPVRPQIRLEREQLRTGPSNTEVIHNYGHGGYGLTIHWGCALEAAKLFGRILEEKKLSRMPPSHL

Take `C[C@]12N[C@H](Cc3ccccc31)c1ccccc12` [MK801, reference compound]: the “percentage of pre-pulse inhibition compared to control group” value in the test on MK801-treated mice [1] is “lower percentage of pre-pulse inhibition”. Besides, in the test on MK801-treated mice [2], the “locomotion activity in open field task compared to control group” value is “displayed hyper-locomotion”.

In the case of `O=C(Oc1coc(CO)cc1=O)c1ccc[nH]1` [Compound 1, 6-(hydroxymethyl)-4-oxo-4H-pyran-3-yl 1H-pyrrole-2-carboxylate], the “spontaneous locomotion (total travel distance) versus vehicle” value with mice was “no significant difference between groups”. Moreover, the pIC50 against hDAAO (human DAAO) was 3.30 to 4.00. Further, the “percentage of pre-pulse inhibition compared to control group” value in the test with MK801-treated mice [1] is “the same level of pre-pulse inhibition percentage; also recorded: rescued/protected the MK801-induced PPI deficits”. For the same compound, the “locomotion activity in open field task compared to control group” value with MK801-treated mice [2] was “equal level of locomotion activity as mice in the control group; also recorded: reversed/protected MK801-induced hyper-locomotion activity”.
